Each compound was assayed on Human gastric cancer cell HGC-27 (assay: In-vitro anti-tumor activity test by MTT method). Settings: HGC-27 cells, 24 hours incubation with compound, OD 570 nm.
Assay type: cell-based
Protocol: Anti-Tumor Activity Test of Compounds
The in-vitro anti-tumor activity of the compounds was tested by tetramethylazoazole colorimetric (MTT) method. Human gastric cancer cell HGC-27 was used as a test cell. 5-fluorouracil (5-FU) was selected as the positive control drug. Human gastric cancer cell HGC-27 in the exponential growth phase was made into a cell suspension with 4×10^3 cells/mL, inoculated in a 96-well plate, and cultured in a CO2 incubator for 36 hours. The test solution (10 μL) of the compound to be tested was added into the test wells, with parallel wells being set for each concentration. The same amount of DMSO was used as a blank control. The plate was incubated in a CO2 incubator for 24 hours, then the supernatant was discarded, and 10 μL of 5% MTT was added to each well. Then the plate was incubated for 4 hours, and the supernatant was sucked and discarded. Subsequently, 100 μL of DMSO was added to each well, and the plate was shaken in a shaker for 20 minutes. The OD value was measured with a microplate reader at a wavelength of 570 nm, and the cell inhibition rate was calculated. Cell inhibition rate=(OD value of negative control group−OD value of tested substance group)/OD value of negative control group×100%. The IC50 value of each compound was calculated by the probability unit weighted regression method.

Point of comparison: COc1ccc(-c2nc(C(=O)N/N=C/c3c(C)nn(C)c3Oc3ccc(F)cc3)cc3c2[nH]c2ccccc23)cc1OC [Ic], IC50 7.03 µM. Against it:
- O=c1[nH]cc(F)c(=O)[nH]1 [Compound 5-FU, 5-fluorouracil, reference compound] — 4.9-fold higher, 34.1 µM
- COc1ccc(-c2nc(C(=O)N/N=C/c3c(C)nn(C)c3Oc3ccc(Cl)cc3)cc3c2[nH]c2ccccc23)cc1OC [Ia] — within 1.5-fold, 10.1 µM
- COc1ccc(Oc2c(/C=N/NC(=O)c3cc4c([nH]c5ccccc54)c(-c4ccc(OC)c(OC)c4)n3)c(C)nn2C)cc1 [Ib] — 3.7-fold lower, 1.89 µM
- COc1ccc(-c2nc(C(=O)N/N=C/c3c(C)nn(C)c3Oc3ccc(F)cc3F)cc3c2[nH]c2ccccc23)cc1OC [Id] — 5.5-fold lower, 1.27 µM

From patent publication US12358914B2, “Preparation method and use of pyrazole compound containing 1-(3,4-dimethoxyphenyl)-β-carboline unit” (NANTONG UNIVERSITY, priority 2020, dated 2025)
